According to ChEMBL document CHEMBL1201862, “PubChem BioAssay data set” (2004):
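Exposure lasted 48 hours, with cells grown in 96-well plates and compounds tested at five concentrations. GI50 marks 50% less growth.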 Activity calls are given as the source filed them. Cut-off read from the data, not from the text of the source: active = GI50 up to about 1.1 µM and inactive = higher.

Experiments:
Assay in all cases: DTP human tumour cell line panel, 48 h
NCI/ADR-RES = tested on: NCI/ADR-RES
HL-60 = tested on: HL-60
MCF7 = tested on: MCF7
HOP-62 = tested on: HOP-62
SK-OV-3 = tested on: SK-OV-3
Hs-578T = tested on: Hs-578T
MOLT-4 = tested on: MOLT-4
OVCAR-4 = tested on: OVCAR-4
EKVX = tested on: EKVX
ACHN = tested on: ACHN
SNB-19 = tested on: SNB-19
HCC 2998 = tested on: HCC 2998
UO-31 = tested on: UO-31
RPMI-8226 = tested on: RPMI-8226
HCT-15 = tested on: HCT-15
Malme-3M = tested on: Malme-3M
OVCAR-8 = tested on: OVCAR-8
SW-620 = tested on: SW-620
MDA-N = tested on: MDA-N
SF-268 = tested on: SF-268

Row | Structure (SMILES) | GI50 (NCI/ADR-RES) | GI50 (HL-60) | GI50 (MCF7) | GI50 (HOP-62) | GI50 (SK-OV-3) | GI50 (Hs-578T) | GI50 (MOLT-4) | GI50 (OVCAR-4) | GI50 (EKVX) | GI50 (ACHN) | GI50 (SNB-19) | GI50 (HCC 2998) | GI50 (UO-31) | GI50 (RPMI-8226) | GI50 (HCT-15) | GI50 (Malme-3M) | GI50 (OVCAR-8) | GI50 (SW-620) | GI50 (MDA-N) | GI50 (SF-268)
1 | Cc1cc(NS(=O)(=O)c2ccc(Nc3c4ccccc4nc4c(C(=O)NC(CO)(CO)CO)cccc34)cc2)no1 | > 100 µM (inactive) | 34.5 µM (inactive) | 23.3 µM (inactive) | 25.1 µM (inactive) | 35.2 µM (inactive) | 25.1 µM (inactive) | 8.75 µM (inactive) | 48.8 µM (inactive) | 73.6 µM (inactive) | 32.7 µM (inactive) | 34.4 µM (inactive) | 16.9 µM (inactive) | 48.6 µM (inactive) | 19.7 µM (inactive) | 61.7 µM | 29.4 µM (inactive) | 49.7 µM (inactive) | 31 µM (inactive) | 37.3 µM (inactive) | 21.3 µM (inactive)
2 | CCOc1cc2c(cc1O)C(O)C[C@@H]1[C@@H]2CC[C@]2(C)[C@@H](O)CC[C@@H]12 (stereo not given in full) | 0.279 µM (active) | 0.0822 µM (active) | 0.268 µM (active) | 0.675 µM (active) | 0.493 µM (active) | 0.46 µM (active) | 0.692 µM (active) | > 100 µM (inactive) | 1.32 µM (inactive) | 0.553 µM (active) | 0.465 µM (active) | 3.03 µM (inactive) | 0.767 µM (active) | 0.467 µM (active) | 0.218 µM | 0.307 µM (active) | 0.885 µM (active) | 0.317 µM (active) | 0.0459 µM (active) | 4.16 µM (inactive)
3 | CC1(C)C(=O)/C=C\C(=O)C(C)(C)C2=CC=C(O2)C(C)(C)C(=O)C(Br)C(Br)C(=O)C(C)(C)C2=CC=C1O2 (stereo not given) | 23.2 µM (inactive) | 4.76 µM (inactive) | 33.6 µM (inactive) | > 100 µM (inactive) | > 100 µM (inactive) | 30.1 µM (inactive) | 3.3 µM (inactive) | > 74.5 µM (inactive) | > 100 µM (inactive) | > 46.5 µM (inactive) | > 100 µM (inactive) | > 100 µM (inactive) | > 92.3 µM (inactive) | 2.58 µM (inactive) | 53.1 µM | 49.9 µM (inactive) | 12 µM (inactive) | 7.4 µM (inactive) | > 45 µM (inactive) | > 66.5 µM (inactive)
4 | Oc1ncc(N(CCCl)CCCl)c(O)n1 [URACIL MUSTARD] | 23.7 µM (inactive) | 1.43 µM (inactive) | 14.6 µM (inactive) | 15 µM (inactive) | 47.2 µM (inactive) | 91 µM (inactive) | 1.59 µM (inactive) | 83 µM (inactive) | 85.7 µM (inactive) | 2.67 µM (inactive) | 42.1 µM (inactive) | 62.7 µM (inactive) | 47.3 µM (inactive) | 41.6 µM (inactive) | 50.2 µM | 32.8 µM (inactive) | 42.2 µM (inactive) | 35.3 µM (inactive) | 60.4 µM (inactive) | 12.7 µM (inactive)
5 | [C-]#[N+]C(=C\c1ccc(O)cc1)/C(=C/c1ccc(O)cc1)[N+]#[C-] [XANTOCILLIN] | 2.44 µM (inactive) | 1.07 µM (active) | 1.55 µM (inactive) | 3.21 µM (inactive) | 3.39 µM (inactive) | 0.718 µM (active) | 1.57 µM (inactive) | 3.19 µM (inactive) | 2.06 µM (inactive) | 2.03 µM (inactive) | 2.55 µM (inactive) | 3.49 µM (inactive) | 1.48 µM (inactive) | 4.39 µM (inactive) | 1.45 µM | 0.871 µM (active) | 1.28 µM (inactive) | 1.14 µM (inactive) | 1.47 µM (inactive) | 2.96 µM (inactive)
